Assay results taken from publication PMC8160793, “Potent Antimicrobial and Antibiofilm Activities of Feleucin-K3 Analogs Modified by α-(4-Pentenyl)-Ala against Multidrug-Resistant Bacteria” (Biomolecules, 2021).
Values after ≈ are worked out from the molar mass of the structure shown. Square brackets hold non-standard residues; d marks the D form. Peptide text beside a SMILES is read from it. ξ: configuration not given here. ξαMeGly(pent-4-enyl) = C=CCCCC(C)(N)C(=O)O

Experiments:
A. baumannii ATCC 19606 = format: cell-based, Acinetobacter baumannii; conditions: ATCC 19606, 24 h
Experimental: (§1) The antibiofilm activity of the peptides was determined according to the previously described methods. Strains (final concentration of 5 × 10^5 CFU/mL) and peptides (4–128 μg/mL) were incubated for 24 h at 37 °C. Biofilm cells were cleaned with 0.01-M PBS and fixed with methanol. Crystal violet (0.1%, HopeBiol, Qingdao, China) was used to stain the biofilm cells for 10 min. After washing with water, 95% ethanol was finally added, and the optical density at 595 nm was measured with a microplate reader (Flex Station 3; Laguna Hills, CA, USA).

mouse RBCs = assay: Hemolytic activity; format: cell-based; conditions: equal volume of 8% RBC suspension, 1 h, OD 490 nm, Triton X-100 positive control; for hemolysis rate at 128 µg/mL: peptide 128 µg/mL (maximum concentration)
Experimental: Mouse red blood cells (RBCs) were collected using the eyeball removal method to investigate the hemolytic activity of the Feleucin-K3 analogs. Then, these analogs were incubated with the same volume of 8% RBC suspension for 1 h. After centrifugation for 10 min, 100 μL of supernatant was withdrawn, and the optical density at 490 nm was detected. The hemolysis rate of the cells treated with 0.1% Triton X-100 (Solarbio, Beijing, China) was used as a positive control, and PBS was used as a negative control.

MRSA ATCC 33591 [1] = format: cell-based, Staphylococcus aureus; conditions: ATCC 33591, 24 h
Experimental: as §1

S. aureus ATCC 25923 [2] = format: cell-based, Staphylococcus aureus; conditions: ATCC 25923, 24 h
Experimental: as §1

A. baumannii 91105 = format: cell-based, Acinetobacter baumannii; conditions: 91105, 18 h
Experimental: (§2) The minimum inhibitory concentration (MIC) of the Feleucin-K3 analogs was tested by the broth microdilution method. Sensitive bacteria and drug-resistant bacteria were diluted to 1 × 10^6 CFU/mL, according to the McFarland standards. Bacterial suspension and peptide solutions (8–128 μg/mL) were incubated at 37 °C for 18 h. The minimum concentration without obvious bacterial growth was the MIC of the peptides. The stability of the analogs in a physiological salt environment was also investigated. In brief, salt powder (450-mM NaCl) was dissolved in deionized water, and the following investigational steps were the same as those described before. The above steps were repeated several times, until the same value was obtained three times.

A. baumannii 97830 = format: cell-based, Acinetobacter baumannii; conditions: 97830, 18 h
Experimental: as §2

A. baumannii 91869 = format: cell-based, Acinetobacter baumannii; conditions: 91869, 18 h
Experimental: as §2

A. baumannii 91199 = format: cell-based, Acinetobacter baumannii; conditions: 91199, 18 h
Experimental: as §2

A. baumannii 9896 = format: cell-based, Acinetobacter baumannii; conditions: 9896, 18 h
Experimental: as §2

A. baumannii 9840 = format: cell-based, Acinetobacter baumannii; conditions: 9840, 18 h
Experimental: as §2

A. baumannii 91810 = format: cell-based, Acinetobacter baumannii; conditions: 91810, 18 h
Experimental: as §2

A. baumannii 9234 = format: cell-based, Acinetobacter baumannii; conditions: 9234, 18 h
Experimental: as §2

A. baumannii 91944 = format: cell-based, Acinetobacter baumannii; conditions: 91944, 18 h
Experimental: as §2

A. baumannii 91152 = format: cell-based, Acinetobacter baumannii; conditions: 91152, 18 h
Experimental: as §2

A. baumannii 9828 = format: cell-based, Acinetobacter baumannii; conditions: 9828, 18 h
Experimental: as §2

A. baumannii 92359 = format: cell-based, Acinetobacter baumannii; conditions: 92359, 18 h
Experimental: as §2

A. baumannii 9336 = format: cell-based, Acinetobacter baumannii; conditions: 9336, 18 h
Experimental: as §2

P.aeruginosa ATCC 27853 = format: cell-based, Pseudomonas aeruginosa; conditions: ATCC 27853, 24 h
Experimental: as §1

MRSA 936 = format: cell-based, Staphylococcus aureus; conditions: 936, 18 h
Experimental: as §2

MRSA 71 = format: cell-based, Staphylococcus aureus; conditions: 71, 18 h
Experimental: as §2

MRSA 54 = format: cell-based, Staphylococcus aureus; conditions: 54, 18 h
Experimental: as §2

MRSA ATCC 33591 [3] = format: cell-based, Staphylococcus aureus; conditions: ATCC 33591, 18 h
Experimental: as §2

MRSA 52 = format: cell-based, Staphylococcus aureus; conditions: 52, 18 h
Experimental: as §2

S. aureus 725 = format: cell-based, Staphylococcus aureus; conditions: 725, 18 h
Experimental: as §2

MRSA 74 = format: cell-based, Staphylococcus aureus; conditions: 74, 18 h
Experimental: as §2

MRSA 51 = format: cell-based, Staphylococcus aureus; conditions: 51, 18 h
Experimental: as §2

S. aureus 794 = format: cell-based, Staphylococcus aureus; conditions: 794, 18 h
Experimental: as §2

MRSA 75 = format: cell-based, Staphylococcus aureus; conditions: 75, 18 h
Experimental: as §2

MRSA 113 = format: cell-based, Staphylococcus aureus; conditions: 113, 18 h
Experimental: as §2

MRSA 48 = format: cell-based, Staphylococcus aureus; conditions: 48, 18 h
Experimental: as §2

MRSA 23 = format: cell-based, Staphylococcus aureus; conditions: 23, 18 h
Experimental: as §2

S. aureus ATCC 25923 [4] = format: cell-based, Staphylococcus aureus; conditions: ATCC 25923, 18 h
Experimental: as §2

Row | SMILES | MBIC50, A. baumannii ATCC 19606 (A. baumannii ATCC 19606) | MBIC90, A. baumannii ATCC 19606 (A. baumannii ATCC 19606) | hemolysis rate at 128 µg/mL (mouse RBCs) | MBIC50, MRSA ATCC 33591 (MRSA ATCC 33591 [1]) | MBIC90, MRSA ATCC 33591 (MRSA ATCC 33591 [1]) | MBIC50, S. aureus ATCC 25923 (S. aureus ATCC 25923 [2]) | MBIC90, S. aureus ATCC 25923 (S. aureus ATCC 25923 [2]) | MIC, A. baumannii 91105 (A. baumannii 91105) | MIC, A. baumannii 97830 (A. baumannii 97830) | MIC, A. baumannii 91869 (A. baumannii 91869) | MIC, A. baumannii 91199 (A. baumannii 91199) | MIC, A. baumannii 9896 (A. baumannii 9896) | MIC, A. baumannii 9840 (A. baumannii 9840) | MIC, A. baumannii 91810 (A. baumannii 91810) | MIC, A. baumannii 9234 (A. baumannii 9234) | MIC, A. baumannii 91944 (A. baumannii 91944) | MIC, A. baumannii 91152 (A. baumannii 91152) | MIC, A. baumannii 9828 (A. baumannii 9828) | MIC, A. baumannii 92359 (A. baumannii 92359) | MIC, A. baumannii 9336 (A. baumannii 9336) | also measured
1 | C=CCCCC(C)(N)C(=O)N[C@@H](CC(C)C)C(=O)N[C@@H](CCCCN)C(=O)N[C@@H](CC(C)C)C(=O)N[C@@H](CC(C)C)C(=O)N[C@@H](CCCCN)C(=O)N[C@@H](CCCCN)C(=O)N[C@@H](CC(C)C)C(=O)N[C@@H](CC(C)C)C(N)=O (stereo partly shown) [Feleucin-K65] (H-[ξαMeGly(pent-4-enyl)]LKLLKKLL-NH2) | 8 µg/mL | 8 µg/mL | 31.6% | 8 µg/mL | 8 µg/mL | 8 µg/mL | 16 µg/mL | 4 µg/mL (≈ 3.61 µM) | 4 µg/mL (≈ 3.61 µM) | 4 µg/mL (≈ 3.61 µM) | 4 µg/mL (≈ 3.61 µM) | 4 µg/mL (≈ 3.61 µM) | 4 µg/mL (≈ 3.61 µM) | 4 µg/mL (≈ 3.61 µM) | 4 µg/mL (≈ 3.61 µM) | 4 µg/mL (≈ 3.61 µM) | 4 µg/mL (≈ 3.61 µM) | 4 µg/mL (≈ 3.61 µM) | 4 µg/mL (≈ 3.61 µM) | 4 µg/mL (≈ 3.61 µM) | hemolysis rate at 64 µg/mL (mouse RBCs; peptide 64 µg/mL): 9.08%; MBIC50, P.aeruginosa ATCC 27853 (P.aeruginosa ATCC 27853): 8 µg/mL; MBIC90, P.aeruginosa ATCC 27853 (P.aeruginosa ATCC 27853): 16 µg/mL; MIC, MRSA 936 (MRSA 936): 4 µg/mL (≈ 3.61 µM); MIC, MRSA 71 (MRSA 71): 4 µg/mL (≈ 3.61 µM); MIC, MRSA 54 (MRSA 54): 4 µg/mL (≈ 3.61 µM); MIC, MRSA ATCC 33591 (MRSA ATCC 33591 [3]): 4 µg/mL (≈ 3.61 µM); MIC, MRSA 52 (MRSA 52): 4 µg/mL (≈ 3.61 µM); MIC, S. aureus 725 (S. aureus 725): 4 µg/mL (≈ 3.61 µM); MIC, MRSA 74 (MRSA 74): 4 µg/mL (≈ 3.61 µM); MIC, MRSA 51 (MRSA 51): 8 µg/mL (≈ 7.23 µM); MIC, S. aureus 794 (S. aureus 794): 8 µg/mL (≈ 7.23 µM); MIC, MRSA 75 (MRSA 75): 4 µg/mL (≈ 3.61 µM); MIC, MRSA 113 (MRSA 113): 8 µg/mL (≈ 7.23 µM); MIC, MRSA 48 (MRSA 48): 4 µg/mL (≈ 3.61 µM); MIC, MRSA 23 (MRSA 23): 4 µg/mL (≈ 3.61 µM); MIC, S. aureus ATCC 25923 (S. aureus ATCC 25923 [4]): 8 µg/mL (≈ 7.23 µM)
2 | C=CCCCC(C)(NC(=O)[C@H](CC(C)C)NC(=O)[C@H](CCCCN)NC(=O)[C@H](CCCCN)NC(=O)[C@H](CC(C)C)NC(=O)[C@H](CC(C)C)NC(=O)[C@H](CCCCN)NC(=O)[C@H](CC(C)C)NC(=O)[C@@H](N)Cc1ccccc1)C(N)=O (stereo partly shown) [Feleucin-K70] (H-FLKLLKKL[ξαMeGly(pent-4-enyl)]-NH2) | 8 µg/mL | 16 µg/mL | less than 1% | 4 µg/mL | 8 µg/mL | 4 µg/mL | 8 µg/mL | 4 µg/mL (≈ 3.51 µM) | 8 µg/mL (≈ 7.01 µM) | 8 µg/mL (≈ 7.01 µM) | 8 µg/mL (≈ 7.01 µM) | 4 µg/mL (≈ 3.51 µM) | 8 µg/mL (≈ 7.01 µM) | 8 µg/mL (≈ 7.01 µM) | 8 µg/mL (≈ 7.01 µM) | 8 µg/mL (≈ 7.01 µM) | 8 µg/mL (≈ 7.01 µM) | 8 µg/mL (≈ 7.01 µM) | 8 µg/mL (≈ 7.01 µM) | 8 µg/mL (≈ 7.01 µM) | MBIC50, P.aeruginosa ATCC 27853 (P.aeruginosa ATCC 27853): 8 µg/mL; MBIC90, P.aeruginosa ATCC 27853 (P.aeruginosa ATCC 27853): 16 µg/mL; MIC, MRSA 936 (MRSA 936): 8 µg/mL (≈ 7.01 µM); MIC, MRSA 71 (MRSA 71): 8 µg/mL (≈ 7.01 µM); MIC, MRSA 54 (MRSA 54): 8 µg/mL (≈ 7.01 µM); MIC, MRSA ATCC 33591 (MRSA ATCC 33591 [3]): 8 µg/mL (≈ 7.01 µM); MIC, MRSA 52 (MRSA 52): 8 µg/mL (≈ 7.01 µM); MIC, S. aureus 725 (S. aureus 725): 8 µg/mL (≈ 7.01 µM); MIC, MRSA 74 (MRSA 74): 8 µg/mL (≈ 7.01 µM); MIC, MRSA 51 (MRSA 51): 8 µg/mL (≈ 7.01 µM); MIC, S. aureus 794 (S. aureus 794): 8 µg/mL (≈ 7.01 µM); MIC, MRSA 75 (MRSA 75): 8 µg/mL (≈ 7.01 µM); MIC, MRSA 113 (MRSA 113): 8 µg/mL (≈ 7.01 µM); MIC, MRSA 48 (MRSA 48): 8 µg/mL (≈ 7.01 µM); MIC, MRSA 23 (MRSA 23): 8 µg/mL (≈ 7.01 µM); MIC, S. aureus ATCC 25923 (S. aureus ATCC 25923 [4]): 8 µg/mL (≈ 7.01 µM)
